Results on 28 compounds are retold here after patent publication US20120121540A1 (priority 2007, published 2012).

A short description of this experiment: HCV replicon assay (luciferase reporter, ET cell line). The format is cell-based. Conditions: Hepatitis C virus, HCV replicon luciferase activity in ET cells. On the procedure:
A cell line, ET (Huh-lucubineo-ET) is used for screening of compounds for inhibiting HCV RNA dependent RNA polymerase. The ET cell line is stably transfected with RNA transcripts harboring a I389 luc-ubi-neo/NS3-3′/ET; replicon with firefly luciferase-ubiquitin-neomycin phosphotransferase fusion protein and EMCV-IRES driven NS3-5B polyprotein containing the cell culture adaptive mutations (E1202G; T1280I; K1846T) (Krieger at al, 2001 and unpublished). The ET cells are grown in DMEM (Dulbeco's Modified Eagle's Medium), supplemented with 10% fetal calf serum, 2 mM Glutamine, Penicillin (100 IU/mL)/Streptomycin (100 μg/mL), 1× nonessential amino acids, and 250 μg/mL G418 (“Geneticin”). They are all available through Life Technologies (Bethesda, Md.). The cells are plated at 0.5−1.0×10^4 cells/well in the 96 well plates and incubated for 24 hrs before adding test compound. The compounds are added to the cells to achieve a final concentration of 0.1 nM to 50 μm and a final DMSO (dimethylsulfoxide) concentration of 0.5%. Luciferase activity is measured 48-72 hours later by adding a lysis buffer and the substrate (Catalog number Glo-lysis buffer E2661 and Bright-Glo luciferase system E2620 Promega, Madison, Wis.). Cells should not be too confluent during the assay. Percent inhibition of replication data is plotted relative to no compound control. Under the same condition, cytotoxicity of the compounds are determined using cell proliferation reagent, WST-1 (Roche, Germany). The compounds showing antiviral activities, but no significant cytotoxicities are chosen to determine EC50 and TC50. For these determinations, a 10 point, 2-fold serial dilution for each compound was used, which spans a concentration range of 1000 fold. EC50 and similarly TC50 values were calculated by fitting % inhibition at each concentration to the following equation:
% inhibition=100%/[(EC50/[I])^b+1]
where b is Hill's coefficient.
% inhibition values at a specific concentration, […] for example, can also be derived from the equation above.
`O=C(NCc1cccs1)c1nc2c(C(F)(F)F)cc(-c3ccn[nH]3)cn2c1Cl` [Compound 283, 3-Chloro-6-(2H-pyrazol-3-yl)-8-trifluoromethyl-imidazo[1,2-a]pyridine-2-carboxylic Acid(thiophen-2-ylmethyl)-amide] displayed an inhibition at 10 µM of 87.5%.

For the compound `O=C(NCc1ccc(OC(F)(F)F)cc1)c1nc2c(C(F)(F)F)cc(-c3ccco3)cn2c1Cl` [Compound 204, 3-Chloro-6-furan-2-yl-8-trifluoromethyl-imidazo[1,2-a]pyridine-2-carboxylic acid 4-trifluoromethoxy-benzylamide], the inhibition at 10 µM came out at 31.7%.

On to `CC(=O)N(c1ccccc1)C1CCN(C(=O)c2nc3c(C(F)(F)F)cc(-c4ccoc4)cn3c2Cl)C1` (stereo not shown) [Compound 600, N-[1-(3-Chloro-6-furan-3-yl-8-trifluoromethyl-imidazo[1,2-a]pyridine-2-carbonyl)-pyrrolidin-3-yl]-N-phenyl-acetamide], for which at 10 µM the inhibition was 76%.

The compound `O=C(NCc1cccs1)c1nc2c(/C=C/c3ccccc3)cc(-c3ccccc3)cn2c1Cl` [Compound 359, 3-Chloro-6-phenyl-8-styryl-imidazo[1,2-a]pyridine-2-carboxylic Acid (thiophen-2-ylmethyl)-amide] displayed an inhibition at 10 µM of 100%.

`O=C(c1nc2c(C(F)(F)F)cc(-c3ccoc3)cn2c1Cl)N1CC=C(c2cccnc2F)CC1` [Compound 581, (3-Chloro-6-furan-3-yl-8-trifluoromethyl-imidazo[1,2-a]pyridin-2-yl)-(2-fluoro-3′,6′-dihydro-2′H-[3,4′]bipyridinyl-1′-yl)-methanone] yielded an inhibition at 10 µM of 98.2%.

`O=C(NCc1cccs1)c1nc2c(C(F)(F)F)cc(C3=CCCCC3)cn2c1Cl` [Compound 282, 3-Chloro-6-cyclohex-1-enyl-8-trifluoromethyl-imidazo[1,2-a]pyridine-2-carboxylic acid (thiophen-2-ylmethyl)-amide] displayed an inhibition at 10 µM of 97.6%.

On to `O=C(c1nc2c(C(F)(F)F)cc(-c3ccoc3)cn2c1Cl)N1CCC(c2nccs2)CC1` [Compound 556, (3-Chloro-6-furan-3-yl-8-trifluoromethyl-imidazo[1,2-a]pyridin-2-yl)-(4-thiazol-2-yl-piperidin-1-yl)-methanone], for which testing at 10 µM gave an inhibition of 99.5%.

For `O=C(c1nc2c(C(F)(F)F)cc(-c3ccoc3)cn2c1Cl)N1CCC=C(c2ccccc2F)C1` [Compound 591, (3-Chloro-6-furan-3-yl-8-trifluoromethyl-imidazo[1,2-a]pyridine-2-yl)-[5-(2-fluoro-phenyl)-3,6-dihydro-2H-pyridin-1-yl]-methanone], at 10 µM the inhibition was 96.9%.

`O=C(NCc1cccs1)c1nc2c(-c3ncon3)cc(-c3ccoc3)cn2c1Cl` [Compound 374, 3-Chloro-6-furan-3-yl-8-[1,2,4]oxadiazol-3-yl-imidazo[1,2-a]pyridine-2-carboxylic Acid (thiophen-2-ylmethyl)-amide] registered an inhibition at 10 µM of 28.6%.

`O=C(c1nc2c(C(F)(F)F)cc(-c3cn[nH]c3)cn2c1Br)N1CCC(c2cccc(F)c2)C1` (stereo not shown) [Compound 447, (3-Bromo-6-(1H-pyrazol-4-yl)-8-trifluoromethyl-imidazo[1,2-a]pyridin-2-yl)-(3-(3-fluoro-phenyl)-pyrrolidin-1-yl)-methanone] returned an inhibition at 10 µM of 92.8%.

On to `O=C(c1nc2c(C(F)(F)F)cc(-c3cn[nH]c3)cn2c1Cl)N1CC=C(c2ncccc2F)C1` [Compound 592], for which at 10 µM the inhibition was 97.1%.

In the case of `Cn1cc(-c2cc(C(F)(F)F)c3nc(C(=O)N4CCC(c5cccc(F)c5)C4)c(Cl)n3c2)cn1` (stereo not shown) [Compound 624, [3-Chloro-6-(1-methyl-1H-pyrazol-4-yl)-8-trifluoromethyl-imidazo[1,2-a]pyridin-2-yl]-[3-(3-fluoro-phenyl)-pyrrolidin-1-yl]-methanone], at 10 µM the inhibition was 63.9%.

`O=C(c1nc2c(C(F)(F)F)cc(-c3ccoc3)cn2c1Cl)N1CC=C(c2ccccc2)C1` [Compound 259, (3-chloro-6-furan-3-yl-8-trifluoromethyl-imidazo[1,2-a]pyridin-2-yl)-(3-phenyl-2,5-dihydro-pyrrol-1-yl)-methanone]: 10 µM produced 99.4% inhibition.

`COc1cccc(OC)c1C1=CCN(C(=O)c2nc3c(C(F)(F)F)cc(-c4ccoc4)cn3c2Cl)CC1` [Compound 562, (3-Chloro-6-furan-3-yl-8-trifluoromethyl-imidazo[1,2-a]pyridin-2-yl)-[4-(2,6-dimethoxy-phenyl)-3,6-dihydro-2H-pyridin-1-yl)-methanone] had an inhibition at 10 µM of 13.4%.

As to `N#Cc1ccccc1C1CCN(C(=O)c2nc3c(C(F)(F)F)cc(-c4cn[nH]c4)cn3c2Cl)CC1` [Compound 607, 2-{1-[3-Chloro-6-(1H-pyrazol-4-yl)-8-trifluoromethyl-imidazo[1,2-a]pyridine-2-carbonyl]-piperidin-4-yl}-benzonitrile], at 10 µM the inhibition was 92.2%.

As to `O=C(c1nc2c(C(F)(F)F)cc(-c3ccoc3)cn2c1Cl)N1CCC(c2cccs2)C1` (stereo not shown) [Compound 423, (3-Chloro-6-furan-3-yl-8-trifluoromethyl-imidazo[1,2-a]pyridin-2-yl)-(3-thiophen-2-yl-pyrrolidin-1-yl)-methanone], at 10 µM the inhibition was 99.8%.

In turn, `O=C(NCCc1ccccc1)c1cc2cc(-c3ccccc3)cc(I)n2n1` [Compound 130, 7-Iodo-5-phenyl-pyrazolo[1,5-a]pyridine-2-carboxylic Acid phenethyl-amide] showed an inhibition at 10 µM of 32.3%.

`CN(Cc1cccs1)C(=O)c1cc2cc(-c3ccccc3)cc(C(F)(F)F)n2n1` [Compound 147, 5-phenyl-7-trifluoromethyl-pyrazolo[1,5-a]pyridine-2-carboxylic Acid methyl-thiophen-2-ylmethyl-amide] showed an inhibition at 10 µM of 26.8%.

For the compound `O=S(=O)(Cc1ccccc1)NCc1cn2cc(-c3ccoc3)cc(C(F)(F)F)c2n1` [Compound 396], the inhibition at 10 µM came out at 94.2%.

As for `O=C(NCc1cccs1)c1nc2c(C(F)(F)F)cc(-c3ccncc3)cn2c1Cl` [Compound 207, 3-Chloro-6-pyridin-4-yl-8-trifluoromethy-imidazo[1,2-a]pyridine-2-carboxylic acid (thiophen-2-ylmethyl)-amide], the inhibition at 10 µM stood at 85.7%.

For `O=C(NCc1cccs1)c1cc2cc(-c3ccoc3)cc(Cl)c2[nH]1` [Compound 348, 7-Chloro-5-furan-3-yl-1H-indole-2-carboxylic Acid (thiophen-2-ylmethyl)-amide], the inhibition at 10 µM was 0.1%.

With `O=C(c1nc2c(C(F)(F)F)cc(-c3ccoc3)cn2c1Cl)N1CCC(c2ccc(F)cc2)C1` (stereo not shown) [Compound 233, (3-Chloro-6-furan-3-yl-8-trifluoromethyl-imidazo[1,2-a]pyridin-2-yl)-[3-(4-fluoro-phenyl)-pyrrolidin-1-yl]-methanone], the inhibition at 10 µM came to 90.6%.

`O=C(c1nc2c(C(F)(F)F)cc(-c3ccoc3)cn2c1Br)N1CCC(c2ccc(F)cc2)C1` (stereo not shown) [Compound 253, (3-Bromo-6-furan-3-yl-8-trifluoromethyl-imidazo[1,2-a]pyridin-2-yl)-[3-(4-fluoro-phenyl)-pyrrolidin-1-yl]-methanone]: 10 µM produced 98% inhibition.

On to `O=C(c1nc2c(C(F)(F)F)cc(-c3ccoc3)cn2c1Cl)N1CCC(c2ccccc2F)C1` (stereo not shown) [Compound 333, (3-Chloro-6-furan-3-yl-8-trifluoromethyl-imidazo[1,2-a]pyridin-2-yl)-[3-(2-fluoro-phenyl)-pyrrolidin-1-yl]-methanone], for which the inhibition at 10 µM was determined as 98.9%.

The compound `O=C(c1nc2c(C(F)(F)F)cc(-c3ccoc3)cn2c1Cl)N1CCN(c2ncccn2)CC1` [Compound 597, (3-Chloro-6-furan-3-yl-8-trifluoromethyl-imidazo[1,2-a]pyridin-2-yl)-(4-pyrimidin-2-yl-piperazin-1-yl)-methanone] registered an inhibition at 10 µM of 38.7%.

`O=C(NCc1ccc(F)cc1)NCc1cn2cc(-c3ccoc3)cc(C(F)(F)F)c2n1` [Compound 397, 1-(4-Fluoro-benzyl)-3-(6-furan-3-yl-8-trifluoromethyl-imidazo[1,2-a]pyridine-2-ylmethyl)-urea] gave an inhibition at 10 µM of 21.9%.

Turning to `O=C(c1nc2c(C(F)(F)F)cc(-c3cn[nH]c3)cn2c1Br)N1CCN(c2nccs2)CC1` [Compound 610, [3-Bromo-6-(1H-pyrazol-4-yl)-8-trifluoromethyl-imidazo[1,2-a]pyridin-2-yl]-(4-thiazol-2-yl-piperazin-1-yl)-methanone], the inhibition at 10 µM stood at 68.7%.

`N#Cc1ccccc1C1=CCN(C(=O)c2nc3c(C(F)(F)F)cc(-c4ccoc4)cn3c2Cl)CC1` [Compound 563, 2-[1-(3-Chloro-6-furan-3-yl-8-trifluoromethyl-imidazo[1,2-a]pyridine-2-carbonyl)-1,2,3,6-tetrahydro-pyridin-4-yl]-benzonitrile] returned an inhibition at 10 µM of 97.4%.
